Series [1] concerns chicken embryo chorioallantoic membrane. The series is described as follows: Irritancy (stimulus) test, chicken embryo chorioallantoic membrane method.
A short description of series [2]: Foaming performance test (foam volume, mixing method). Type of series: physicochemical. The following applies: 2 g of sample, 150 mg/kg hard water to 500 mL, stirring 30 s at 1000 rpm. On the procedure: For further comparison, foaming performance tests are conducted on products of Examples 12-13 and Comparative Examples 16-17, and the test results are shown in Table 12.

Consider `CCCCCCCCCCCC(=O)NCCS(=O)(=O)O.[Na]` [Example 2, sodium lauroyl taurine], for which, in series [1], the Bleeding time is 41.5 and the IS value is 4.33.
Take `CCCCCCCCCCCC(=O)NCCS(=O)(=O)O.[Na]` [Comparative Example 16, sodium lauroyl taurine, reference compound]: the Foam volume in series [2] is 860 mL.
Still for that read-out and setting: for `CCCCCCCCCCCC(=O)NCCS(=O)(=O)O.[Na]` [Example 12, sodium lauroyl taurine] the value was 1240 mL.

These data come from patent US20250026716A1, “SYNTHESIS PROCESS OF FATTY ACYL TAURINE SALT” (ZHANGJIAGANG GREAT CHEMICAL CO., LTD., priority 2021, published 2025).
